Data: US12415799B2, “Indazole-fused cyclic compound” (Zhejiang Yangli Pharmaceutical Technology Co., Ltd., priority 2020, dated 2025)
Read-outs that look alike come from different tables or passages of the source.

How the values were obtained:
breast cancer = conditions: intramuscular injection; cited from earlier work
[1] = in vivo, cited from earlier work
ERα = ERα (Homo sapiens (Human), UniProt P03372); experiment: Degradation experiment of MCF-7 ERα (ELISA); type: cell-based; conditions: MCF-7 cell line, 4 hours incubation, total ERα ELISA; read-out: IC50 value of promoting ERα degradation
ERα, sequence (P03372 whole entry): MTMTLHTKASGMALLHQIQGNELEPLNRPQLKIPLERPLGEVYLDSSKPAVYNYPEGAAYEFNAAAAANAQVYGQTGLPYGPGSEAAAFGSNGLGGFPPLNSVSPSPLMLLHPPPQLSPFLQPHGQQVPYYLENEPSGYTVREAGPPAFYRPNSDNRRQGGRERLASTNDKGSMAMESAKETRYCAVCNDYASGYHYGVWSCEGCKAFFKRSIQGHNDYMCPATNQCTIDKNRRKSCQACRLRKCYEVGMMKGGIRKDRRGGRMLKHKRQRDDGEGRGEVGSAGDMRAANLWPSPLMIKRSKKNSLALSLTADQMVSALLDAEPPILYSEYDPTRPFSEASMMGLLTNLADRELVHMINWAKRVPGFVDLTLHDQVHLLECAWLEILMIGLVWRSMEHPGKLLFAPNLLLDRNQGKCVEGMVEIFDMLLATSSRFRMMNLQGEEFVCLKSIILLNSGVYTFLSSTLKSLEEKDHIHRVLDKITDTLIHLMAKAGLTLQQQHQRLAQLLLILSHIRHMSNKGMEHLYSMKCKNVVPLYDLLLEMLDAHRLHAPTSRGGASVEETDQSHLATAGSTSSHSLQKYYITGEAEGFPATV
Text: (2) Degradation Experiment of MCF-7 ERα Experimental Materials:
Phenol red-free MEM culture medium was purchased from Wisent, fetal bovine serum was purchased from Biosera, and Human Total ERα/NR3A1 ELISA kit was purchased from R&D. MCF-7 cell line was purchased from Cell Bank of Type Culture Collection of Chinese Academy of Sciences. Nivo5 multi-label analyzer (PerkinElmer).
MCF-7 cells were resuspended in culture medium (phenol red-free MEM+5% charcoal/dextran-treated fetal bovine serum+1% penicillin-streptomycin double antibody solution), and seeded in a clear 96-well cell culture plate with 80 μL per well containing 20,000 cells, and the cell culture plate was incubated overnight in a carbon dioxide incubator;
ELISA plate was coated with strips, human total estrogen receptor a capture antibody was diluted with 1×PBS with a final concentration of 1 μg/mL, and 100 μL of mixture was added to each well, and incubated overnight at 25° C.
Cell administration: The test compound was diluted to the 8th concentration with a multi-channel pipette, and the compound concentration was 20 μM and 4 μM, and then diluted to the 8th concentration of 0.256 nM in turn, and a double-duplicate experiment was set-up. 78 μL of culture medium was added to the middle plate, then 2 μL of gradient dilution compound per well was transferred to the middle plate according to the corresponding position, and 20 μL of the mixture per well was mixed evenly and transferred to the cell plate, and the final concentration of DMSO was 0.5%, and the mixture was incubated at 37° C. for 4 hours;
preparation of standard curve solution: 110 ng/mL of standard curve storage solution was 6-fold diluted with buffer (1×PBS containing 1 mM EDTA, 0.5% Triton X-100, pH 7.2 to 7.4) to obtain a solution with a concentration of 18.3 ng/mL, and then 91.5-fold diluted with buffer (1×PBS containing 1 mM EDTA, 0.5% Triton X-100, 1 M urea, pH 7.2 to 7.4) to obtain a solution with a concentration of 0.2 ng/mL, and 8-point gradient dilution was performed using buffer (1×PBS containing 1 mM EDTA, 0.5% Triton X-100, 1 M urea, pH 7.2 to 7.4) with a final concentration of […].
1×PBS was pre-cooled, and after the incubation of the compound, the supernatant was removed, and then the plate was washed with 250 μL of pre-cooled 1×PBS per well, then 30 µL of cell lysate per well (1×PBS containing 1 mM EDTA, 0.5% Triton X-100, 6 M urea, 1 mM active sodium orthovanadate, 2.5 mM sodium pyrophosphate, lx protease inhibitor, pH 7.2 to 7.4) was added, and lysed on ice for 15 minutes;
after cell was lysed in the cell plate, the cell lysate was 6-fold diluted with 150 μL of buffer (1×PBS containing 1 mM EDTA, 0.5% Triton X-100, pH 7.2 to 7.4) per well, and the mixture was mixed evenly by blowing with a multi-channel pipette, and 100 μL of solution per well was transferred to the ELISA plate;
the human total estrogen receptor a detection antibody stock solution (14.4 μg/mL) was 36-fold diluted with buffer (1×PBS containing 1% bovine serum albumin), and the final concentration of the detection antibody was 400 ng/mL, and 100 μL of the solution per well was transferred to the ELISA plate and incubated at 25° C. for 2 hours;
Data analysis: A, B, C and D in the four-parameter equation y=(A−D)/[1+(x/C)^B]+D were calculated according to the original data of the standard curve, wherein, y was the original OD450 value, x was the concentration of the corresponding point of the standard curve. According to the four-parameter equation and the OD450 reading of the original data of the sample, the concentration of ERα at the corresponding point was calculated. The equation (Sample−Min)/(Max−Min)×100% was used to convert the original data into inhibition rate, and the IC50 value could be obtained by curve fitting with four parameters (obtained by “log (inhibitor) vs. response—variable slope” mode in GraphPad Prism).
Max wells: Positive control wells reading at 100 nM Fulvestrant-treated cell wells […]

MCF-7 cells = experiment: MCF-7 cell proliferation inhibition experiment; type: cell-based; conditions: Homo sapiens, MCF7, 144 h, 6 days incubation, CellTiter-Glo, read-out: Anti-cell proliferation activity of MCF-7
Protocol: (1) MCF-7 Cell Proliferation Inhibition Experiment:
EMEM culture medium was purchased from Wisent, and fetal bovine serum was purchased from Biosera, Promega CellTiter-Glo reagent. MCF-7 cell line was purchased from Cell Bank of Type Culture Collection of Chinese Academy of Sciences. Nivo5 multi-label analyzer (PerkinElmer).
MCF-7 cells were seeded in a white 384-well plate with 600 cells per well in every […] of the cell suspension. The cell plate was placed in a carbon dioxide incubator and cultured overnight.
The test compound was diluted to the 10th concentration with a multi-channel pipette, and the compound concentration was 1 mM, 400 μM, and 80 μM, and then diluted to the 10th concentration of 1 nM in turn, and a double-duplicate experiment was set-up. 47.5 μL of culture medium was added to the middle plate, then 2.5 μL of gradient dilution compound per well was transferred to the middle plate according to the corresponding position, and 5 μL of the mixture per well was mixed evenly and transferred to the cell plate. The cell plate was placed in a carbon dioxide incubator and cultured for 6 days.
After 6 days of co-incubation of the compound, the culture medium was removed by centrifugation, and 25 μL of Promega CellTiter-Glo reagent was added to each well of the cell plate, and incubated at room temperature for 10 minutes to stabilize the luminescence signal. PerkinElmer Nivo multi-marker analyzer reading was used. In the experiment, the reading of 2 μM positive reference compound H3B-6545(US20160347717A1) was used as a positive control to participate in data calculation.
The equation % Inhibition=((RFUCmpd−AVER(RFUNeg.ctrl))/((AVER(RFUPos.Ctrl)−AVER(RFUNeg.ctrl))×100% was used to convert the original data into inhibition rate, and the compound curve was fitted by log(inhibitor)vs. response-Variable slope of Graphpad Prism 5. The IC50 value was calculated by the software through the formula Y=Bottom+(Top−Bottom)/(1+10^((Log IC50−X)*HillSlope)).

CYP3A4 = CYP3A4 (Homo sapiens (Human), UniProt P08684); experiment: Cytochrome P450 isoenzyme inhibition, human liver microsomes; type: in vitro ADME
CYP3A4, sequence (P08684 whole entry): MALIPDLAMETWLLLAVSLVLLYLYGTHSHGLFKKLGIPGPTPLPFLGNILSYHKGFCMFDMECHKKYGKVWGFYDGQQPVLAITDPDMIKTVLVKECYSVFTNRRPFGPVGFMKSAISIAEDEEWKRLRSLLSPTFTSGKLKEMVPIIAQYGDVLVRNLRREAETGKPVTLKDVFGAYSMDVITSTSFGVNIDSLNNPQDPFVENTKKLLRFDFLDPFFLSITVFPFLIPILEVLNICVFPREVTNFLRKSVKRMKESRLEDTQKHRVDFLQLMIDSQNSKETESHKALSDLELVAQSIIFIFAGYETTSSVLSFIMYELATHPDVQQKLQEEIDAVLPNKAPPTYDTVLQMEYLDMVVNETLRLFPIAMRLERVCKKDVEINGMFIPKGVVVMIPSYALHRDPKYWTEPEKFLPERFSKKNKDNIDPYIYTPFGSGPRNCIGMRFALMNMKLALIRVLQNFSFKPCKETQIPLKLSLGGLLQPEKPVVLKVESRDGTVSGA
Protocol: (§1) Experimental purposes: To test the inhibitory effect of test compound on the activity of human liver microsomal cytochrome P450 isoenzymes (CYP1A2 and CYP3A4) (Corning, Co., Ltd.).
(§2) Experimental operation: Firstly, the test compound (10 mM) was subjected to gradient dilution to prepare a working solution (100×final concentration), and the concentration of the working solution was: 5, 1.5, 0.5, 0.15, 0.05, 0.015 and 0.005 mM, respectively, and the working solution of each positive inhibitor of P450 isoenzyme (CYP1A2 and CYP3A4) and its specific substrate mixture (5 in 1) were prepared; and then the human liver microsomes frozen in the −80° C. refrigerator were thawed on ice, and all the human liver microsomes were dissolved, diluted with PB, and a certain concentration of working solution (0.253 mg/mL) was prepared; 20 μL of substrate mixture was added to the reaction plate (20 μL of PB was added to the blank well), while 158 μL of human liver microsomal working solution was added to the reaction plate, and the reaction plate was placed on ice for later use; at this time, 2 μL of various concentrations of the test compound (N=1) and specific inhibitor (N=2) were added to the corresponding well, and the corresponding organic solvent was added to the non-inhibitor (test compound or positive inhibitor) group as a control group sample (a ratio of DMSO:MeOH in the test compound control sample was 1:1, a ratio of DMSO:MeOH in the positive control sample was 1:9); after pre-incubation in a water bath at 37° C. for 10 min, 20 μL of coenzyme factor (NADPH) solution was added to the reaction plate, and incubated in a water bath at 37° C. for 10 min; and 400 μL of cold acetonitrile solution (internal standard was 200 ng/mL tolbutamide and labetalol) was added to terminate the reaction; the reaction plate was placed on a shaker and shaked for 10 minutes; and then centrifuged at 4,000 rpm for 20 minutes; 200 μL of the supernatant was taken and added to 100 μL of water for sample dilution; finally the plate was sealed, shaked and shaked well, for LC/MS/MS detection.

CYP1A2 = CYP1A2 (Homo sapiens (Human), UniProt P05177); type: in vitro ADME; conditions: microsomes
CYP1A2, sequence (P05177 whole entry): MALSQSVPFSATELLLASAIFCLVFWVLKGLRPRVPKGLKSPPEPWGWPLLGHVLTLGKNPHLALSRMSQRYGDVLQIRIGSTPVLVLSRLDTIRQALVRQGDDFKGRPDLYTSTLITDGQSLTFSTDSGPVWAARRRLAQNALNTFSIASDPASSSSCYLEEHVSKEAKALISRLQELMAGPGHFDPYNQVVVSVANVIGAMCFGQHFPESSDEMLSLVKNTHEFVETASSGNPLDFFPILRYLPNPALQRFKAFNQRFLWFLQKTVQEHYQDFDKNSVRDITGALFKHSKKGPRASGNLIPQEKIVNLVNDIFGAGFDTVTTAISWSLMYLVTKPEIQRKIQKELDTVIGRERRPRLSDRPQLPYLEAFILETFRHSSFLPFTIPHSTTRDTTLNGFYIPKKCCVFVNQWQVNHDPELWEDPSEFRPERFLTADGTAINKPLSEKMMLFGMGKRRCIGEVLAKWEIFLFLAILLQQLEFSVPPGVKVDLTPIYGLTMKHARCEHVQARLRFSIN
Protocol: as §1, §2

rat uterus = experiment: Uterine wet weight inhibition experiment in rat cubs; type: in vivo; conditions: 18-day-old female rat pups, oral, three consecutive days; compounds 25 mg/kg, Ethinylestradiol 0.1 mg/kg
Protocol: The purpose of this experiment was to evaluate the effect of the compound of the present disclosure on uterine growth inhibition in 18 to 21-day-old female rat pups (provided by Beijing Vital River Laboratory Animal Technology Co., Ltd.). In this experiment, 18-day-old female rat pups were orally administered the compound of the present disclosure at a dose of 25 mg/kg for three consecutive days, and the control group was orally administered 0.1 mg/kg of Ethinylestradiol for three consecutive days, and the blank group was not given any drug except the corresponding solvent. Three days after the administration, the rats were sacrificed, and the weight of the rat uterus was weighed to observe the effect of the test drug on the growth inhibition of the rat uterus. Inhibition rate=100×[(VehicleEE−Cpd)/(VehicleEE−Vehicle)], VehicleEE was the wet weight of the rat uterus in the control group (administered 0.1 mg/kg of Ethinylestradiol orally); Cpd was the wet weight of the rat uterus in administration group; Vehicle was the wet weight of the rat uterus in the blank group.

SMILES	DC50 (ERα)	IC50 (MCF-7 cells)	IC50 (CYP3A4)	IC50 (CYP1A2; human, 10 min)	other results
C[C@]12CC[C@@H]3c4ccc(O)cc4C[C@@H](CCCCCCCCC[S+]([O-])CCCC(F)(F)C(F)(F)F)[C@H]3[C@@H]1CC[C@@H]2O (some centres unmarked) [fulvestrant, Fulvestrant]	–	–	–	–	breast cancer patients showing clinical response (breast cancer): about 50%; oral bioavailability ([1]; po): close to zero; blood clearance rate [1]: high
FCCCN1CC(Nc2ccc(C3=C(CC(F)(F)F)CCCc4c3ccc3[nH]ncc43)nc2)C1 [Compound 6]	0.42 nM	0.31 nM	–	–	–
FCCCN1CC(Nc2ncc(C3=C(CC(F)(F)F)CCCc4c3ccc3[nH]ncc43)cn2)C1 [Compound 4]	0.17 nM	–	11100 nM	> 50000 nM	–
C#C[C@]1(O)CC[C@H]2[C@@H]3CCc4cc(O)ccc4[C@H]3CC[C@@]21C [Ethinylestradiol, reference compound]	–	–	–	–	Inhibition rate (rat uterus): 0%; Ratio of uterine wet weight/rat body weight (rat uterus): 2.45 mg/g; Uterine wet weight (rat uterus): 132.2 mg
FCCCN1CC(Nc2cnc(C3=C(CC(F)(F)F)CCOc4c3ccc3[nH]ncc43)cn2)C1 [Compound 3]	0.45 nM	1.37 nM	13600 nM	> 50000 nM	–
FCCCN1CC(Nc2cnc(C3=C(CC(F)(F)F)CCCc4c3ccc3[nH]ncc43)cn2)C1 [Compound 5]	0.017 nM	0.19 nM	–	–	–
FCCCN1CC(Nc2cnc(C3=C(CC(F)(F)F)CCCc4c3ccc3[nH]ncc43)nc2)C1 [Compound 7]	0.4 nM	–	–	–	–

Now from value to molecule, other results behind:

DC50 (ERα)	IC50 (MCF-7 cells)	IC50 (CYP3A4)	IC50 (CYP1A2; human, 10 min)	SMILES	other results
0.37 nM	0.7 nM	42100 nM	–	FCCCN1CC(Nc2cnc(C3=C(CC(F)(F)F)CCCc4c3ccc3[nH]nc(F)c43)cn2)C1 [Compound 8]	IC50 (CYP1A2): > 50000 nM
–	–	30800 nM	47500 nM	N#Cc1cc(C2=C(CC(F)(F)F)CCCc3c2ccc2[nH]nc(F)c32)ncc1NC1CN(CCCF)C1 [Compound 10]	–
0.25 nM	0.42 nM	–	–	OCCCC1=C(c2ccc(OC3CN(CCCF)C3)cc2)c2ccc3[nH]ncc3c2CCC1 [Formate of 1]	–
